These results are taken from patent publication US12384770B2, “Heterocyclic compound” (Takeda Pharmaceutical Company Limited, priority 2019, dated 2025).

One assay addresses T1, HDAC6 enzyme (Homo sapiens, UniProt Q9UBN7).
T1 construct: HDAC6 enzyme prepared by transducing full length HDAC6 gene into Sf-9 insect cells; GST; purchased SignalChem; host or cells: Sf-9 insect cells
T1 sequence (Q9UBN7 1-1215): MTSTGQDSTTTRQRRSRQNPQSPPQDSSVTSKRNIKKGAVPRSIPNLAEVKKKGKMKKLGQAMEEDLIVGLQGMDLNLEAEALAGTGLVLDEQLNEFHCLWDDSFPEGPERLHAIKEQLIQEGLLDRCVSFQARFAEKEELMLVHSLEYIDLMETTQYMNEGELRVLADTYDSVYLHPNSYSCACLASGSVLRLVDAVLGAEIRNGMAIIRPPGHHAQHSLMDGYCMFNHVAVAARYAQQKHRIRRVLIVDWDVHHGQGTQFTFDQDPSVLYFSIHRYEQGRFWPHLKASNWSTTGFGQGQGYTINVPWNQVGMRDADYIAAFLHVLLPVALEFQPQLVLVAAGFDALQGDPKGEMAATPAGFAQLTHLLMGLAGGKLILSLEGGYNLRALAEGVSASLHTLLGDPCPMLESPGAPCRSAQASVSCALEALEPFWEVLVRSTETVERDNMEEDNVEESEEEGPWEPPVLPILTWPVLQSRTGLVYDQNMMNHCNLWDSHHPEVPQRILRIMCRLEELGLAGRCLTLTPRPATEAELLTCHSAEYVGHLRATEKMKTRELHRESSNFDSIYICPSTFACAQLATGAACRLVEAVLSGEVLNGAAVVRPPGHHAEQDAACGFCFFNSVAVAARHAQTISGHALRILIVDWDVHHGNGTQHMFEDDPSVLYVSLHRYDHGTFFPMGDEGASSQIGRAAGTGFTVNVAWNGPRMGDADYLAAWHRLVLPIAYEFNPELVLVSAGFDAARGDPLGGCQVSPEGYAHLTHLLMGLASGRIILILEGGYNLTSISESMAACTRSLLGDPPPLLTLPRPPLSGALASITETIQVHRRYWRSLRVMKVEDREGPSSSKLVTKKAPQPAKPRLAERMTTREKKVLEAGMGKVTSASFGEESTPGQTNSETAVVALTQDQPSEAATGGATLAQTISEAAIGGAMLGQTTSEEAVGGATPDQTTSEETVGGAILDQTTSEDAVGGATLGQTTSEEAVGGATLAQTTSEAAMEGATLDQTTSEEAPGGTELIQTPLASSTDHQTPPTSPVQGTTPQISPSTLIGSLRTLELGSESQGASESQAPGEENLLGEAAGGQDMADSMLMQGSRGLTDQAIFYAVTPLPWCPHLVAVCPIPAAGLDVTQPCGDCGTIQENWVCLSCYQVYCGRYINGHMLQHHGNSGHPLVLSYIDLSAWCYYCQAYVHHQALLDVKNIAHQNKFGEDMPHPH
As to the kind of experiment: HDAC6 enzyme inhibitory assay (HDAC-Glo I/II Assay kit). The assay is classed as biochemical. To be noted: wells without enzyme = 100% inhibition. Summed up:
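Full-length GST-purified HDAC6 from Sf-9 cells preincubated with compound 60 min at room temperature in Tris-HCl pH 7.5 buffer with MgCl2, KCl, NaCl, glutathione, Tween-20. Substrate-developer reaction 20 min, luminescence read; no-enzyme wells set as 100% inhibition.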
`O=C1c2cc(-c3nnc(C(F)F)o3)ccc2CN1[C@H](c1ccc(F)cc1)[C@@H](O)c1ccccc1` (single isomer, unassigned) [Example 46, 6-[5-(difluoromethyl)-1,3,4-oxadiazol-2-yl]-2-[(1R*,2S*)-1-(4-fluorophenyl)-2-hydroxy-2-phenylethyl]-2,3-dihydro-1H-isoindol-1-one]: the “HDAC6 inhibitory rate (%) (10 μM)” value was 100%.

The same assay, now with this note: wells without enzyme = 100% inhibition, 10 µM.
`O=C1c2cc(-c3nnc(C(F)F)o3)ccc2CN1[C@H](c1cnccn1)[C@@H](O)c1ccc(Cl)cc1` (single isomer, unassigned) [Example 97, 2-[(1R*,2S*)-2-(4-chlorophenyl)-2-hydroxy-1-(pyrazin-2-yl)ethyl]-6-[5-(difluoromethyl)-1,3,4-oxadiazol-2-yl]-2,3-dihydro-1H-isoindol-1-one]: the “HDAC6 inhibitory rate (%) (10 μM)” value is given as 99%.

As for `O=C1c2cc(-c3nnc(C(F)F)o3)ccc2CN1[C@H](c1cccc(F)n1)[C@@H](O)c1ccccn1` (single isomer, unassigned) [Example 76, 6-[5-(difluoromethyl)-1,3,4-oxadiazol-2-yl]-2-[(1R*,2R*)-1-(6-fluoropyridin-2-yl)-2-hydroxy-2-(pyridin-2-yl)ethyl]-2,3-dihydro-1H-isoindol-1-one], the “HDAC6 inhibitory rate (%) (10 μM)” value was found to be 100%.

As to `O=C1c2cc(-c3nnc(C(F)F)o3)ccc2CN1[C@H](C1CCOCC1)[C@@H](O)c1ccc(F)c(F)c1` (single isomer, unassigned) [Example 88, 6-[5-(difluoromethyl)-1,3,4-oxadiazol-2-yl]-2-[(1R*,2S*)-2-(3,4-difluorophenyl)-2-hydroxy-1-(oxan-4-yl)ethyl]-2,3-dihydro-1H-isoindol-1-one], the “HDAC6 inhibitory rate (%) (10 μM)” value was found to be 99%.

Regarding `O=C1c2cc(-c3nnc(C(F)F)o3)ccc2CN1[C@H](c1ccccn1)[C@@H](O)c1ccc(C(F)(F)F)cn1` (single isomer, unassigned) [Example 105, 6-[5-(difluoromethyl)-1,3,4-oxadiazol-2-yl]-2-{(1R*,2R*)-2-hydroxy-1-(pyridin-2-yl)-2-[5-(trifluoromethyl)pyridin-2-yl]ethyl}-2,3-dihydro-1H-isoindol-1-one], the “HDAC6 inhibitory rate (%) (10 μM)” value amounted to 99%.

Staying with this assay, now noted: wells without enzyme = 100% inhibition, read-out: HDAC6 inhibitory rate (%) (10 μM).
Turning to `O=C1c2cc(-c3nnc(C(F)F)o3)ccc2CN1[C@H](c1ccc(F)cc1)[C@@H](O)C1CC1` (racemic) [Example 19, 2-[(1RS,2SR)-2-cyclopropyl-1-(4-fluorophenyl)-2-hydroxyethyl]-6-[5-(difluoromethyl)-1,3,4-oxadiazol-2-yl]-2,3-dihydro-1H-isoindol-1-one], the inhibition at 10 µM stood at 99%.

`O=C1c2cc(-c3nnc(C(F)F)o3)ccc2CN1[C@H](C1CCOCC1)[C@@H](O)c1ccc(F)cc1` [Example 72, 6-[5-(difluoromethyl)-1,3,4-oxadiazol-2-yl]-2-[(1R,2S)-2-(4-fluorophenyl)-2-hydroxy-1-(oxan-4-yl)ethyl]-2,3-dihydro-1H-isoindol-1-one]: the inhibition at 10 µM came out at 100%.

Consider `O=C1c2cc(-c3nnc(C(F)F)o3)ccc2CN1[C@H](c1cnccn1)[C@@H](O)c1ccc(F)c(F)c1` (single isomer, unassigned) [Example 85, 6-[5-(difluoromethyl)-1,3,4-oxadiazol-2-yl]-2-[(1R*,2S*)-2-(3,4-difluorophenyl)-2-hydroxy-1-(pyrazin-2-yl)ethyl]-2,3-dihydro-1H-isoindol-1-one], for which the inhibition at 10 µM was 100%.

As for `O=C1c2cc(-c3nnc(C(F)F)o3)ccc2CN1[C@@H](c1ccc(F)cc1)[C@@H](O)c1ccccc1` (racemic) [Example 138, 6-[5-(difluoromethyl)-1,3,4-oxadiazol-2-yl]-2-[(1SR,2SR)-1-(4-fluorophenyl)-2-hydroxy-2-phenylethyl]-2,3-dihydro-1H-isoindol-1-one], the inhibition at 10 µM was determined as 99%.

With `O=C1c2cc(-c3nnc(C(F)F)o3)ccc2CN1[C@H](c1ccc(F)cc1)[C@@H](O)c1ccccc1` (single isomer, unassigned) [Example 45, 6-[5-(difluoromethyl)-1,3,4-oxadiazol-2-yl]-2-[(1R*,2S*)-1-(4-fluorophenyl)-2-hydroxy-2-phenylethyl]-2,3-dihydro-1H-isoindol-1-one], the inhibition at 10 µM turned out to be 100%.

Regarding `CCOc1ccc([C@H]([C@@H](O)c2ccc(F)c(F)c2)N2Cc3ccc(-c4nnc(C(F)F)o4)cc3C2=O)cn1` (racemic) [Example 53, 6-[5-(difluoromethyl)-1,3,4-oxadiazol-2-yl]-2-[(1RS,2SR)-2-(3,4-difluorophenyl)-1-(6-ethoxypyridin-3-yl)-2-hydroxyethyl]-2,3-dihydro-1H-isoindol-1-one], the inhibition at 10 µM stood at 100%.

As to `O=C1c2cc(-c3nnc(C(F)F)o3)ccc2CN1[C@H](C1CC1)[C@@H](O)c1ccc(C(F)(F)F)nc1` (single isomer, unassigned) [Example 77, 2-{(1R*,2S*)-1-cyclopropyl-2-hydroxy-2-[6-(trifluoromethyl)pyridin-3-yl]ethyl}-6-[5-(difluoromethyl)-1,3,4-oxadiazol-2-yl]-2,3-dihydro-1H-isoindol-1-one], the inhibition at 10 µM was 100%.

For `O=C1c2cc(-c3nnc(C(F)F)o3)ccc2CN1[C@H](c1cnccn1)[C@@H](O)c1cccc(Cl)c1` (single isomer, unassigned) [Example 91, 2-[(1R*,2S*)-2-(3-chlorophenyl)-2-hydroxy-1-(pyrazin-2-yl)ethyl]-6-[5-(difluoromethyl)-1,3,4-oxadiazol-2-yl]-2,3-dihydro-1H-isoindol-1-one], the inhibition at 10 µM worked out at 100%.

In the case of `O=C1c2cc(-c3nnc(C(F)F)o3)ccc2CN1[C@H](c1ncccn1)[C@@H](O)c1ccc(F)c(F)c1` (single isomer, unassigned) [Example 94, 6-[5-(difluoromethyl)-1,3,4-oxadiazol-2-yl]-2-[(1R*,2S*)-2-(3,4-difluorophenyl)-2-hydroxy-1-(pyrimidin-2-yl)ethyl]-2,3-dihydro-1H-isoindol-1-one], the inhibition at 10 µM was 100%.

As for `O=C1c2cc(-c3nnc(C(F)F)o3)ccc2CN1[C@H](c1ccccc1)[C@H](O)c1ccccc1` [Example 12, 6-[5-(difluoromethyl)-1,3,4-oxadiazol-2-yl]-2-[(1R,2R)-2-hydroxy-1,2-diphenylethyl]-2,3-dihydro-1H-isoindol-1-one], the inhibition at 10 µM turned out to be 100%.

With `O=C1c2cc(-c3nnc(C(F)F)o3)ccc2CN1[C@H](C1CCOCC1)[C@@H](O)c1cc(F)cc(Cl)c1` (racemic) [Example 106, 2-[(1RS,2SR)-2-(3-chloro-5-fluorophenyl)-2-hydroxy-1-(oxan-4-yl)ethyl]-6-[5-(difluoromethyl)-1,3,4-oxadiazol-2-yl]-2,3-dihydro-1H-isoindol-1-one], the inhibition at 10 µM was determined as 100%.

As to `O=C1c2cc(-c3nnc(C(F)F)o3)ccc2CN1[C@H](c1ncccn1)[C@@H](O)c1ccc(Cl)cc1` (racemic) [Example 93, 2-[(1RS,2SR)-2-(4-chlorophenyl)-2-hydroxy-1-(pyrimidin-2-yl)ethyl]-6-[5-(difluoromethyl)-1,3,4-oxadiazol-2-yl]-2,3-dihydro-1H-isoindol-1-one], the inhibition at 10 µM came to 100%.

As for `O=C1c2cc(-c3nnc(C(F)F)o3)ccc2CN1[C@H](C1CC1)[C@@H](O)c1ncccn1` (single isomer, unassigned) [Example 73, 2-[(1R*,2R*)-1-cyclopropyl-2-hydroxy-2-(pyrimidin-2-yl)ethyl]-6-[5-(difluoromethyl)-1,3,4-oxadiazol-2-yl]-2,3-dihydro-1H-isoindol-1-one], the inhibition at 10 µM worked out at 100%.

For the molecule `O=C1c2cc(-c3nnc(C(F)F)o3)ccc2CN1[C@H](c1ccc(F)cc1)[C@H](O)C1CC1` (racemic) [Example 140, 2-[(1RS,2RS)-2-cyclopropyl-1-(4-fluorophenyl)-2-hydroxyethyl]-6-[5-(difluoromethyl)-1,3,4-oxadiazol-2-yl]-2,3-dihydro-1H-isoindol-1-one], the inhibition at 10 µM was 98%.
